Reference: EP0051177A2, “Pharmaceutical preparations containing substituted ether compounds, their use, substituted ether compounds and process for their preparation” (CIBA-GEIGY AG, priority 1980, dated 1982)

Tested on: LDL-Cholesterin
Test: Effect on serum lipids and lipoproteins (LDL cholesterol) in male rats after oral treatment
Format: in vivo, Ratten
Conditions: 50 mg/kg peroral, once daily for 3 days, twice on day 4, serum 16 h after last dose
Source text: Die in den Präparaten der Erfindung verwendeten Verbindungen zeigen wertvolle pharmakologische Eigenschaften, z.B. hypolipidämische Wirkungen mit günstiger Beeinflussung des Lipoproteinspektrums, ferner, insbesondere Verbindungen der Formel I, worin R3 für einen heterocyelischen Rest aromatischen Charakters, in erster Linie Pyridyl steht, analgetische Effekte. Diese pharmakologischen Eigenschaften können in Tierversuchen, vorzugsweise an Säugetieren, z.B. Ratten nachgewiesen werden. Hierbei können die Verbindungen enteral oder parenteral, vorzugsweise oral, subkutan oder intraperitoneal in einem Dosisbereich von 1 bis 100 mg/kg/Tag verabreicht werden. Beispielsweise wird die Senkung von "low und very low-density"-Lipoproteinen (LDL und VLDL), sowie die Senkung von Cholesterin und Triglyceriden im Serum wie folgt bestimmt: Männlichen Ratten verabreicht man an 3 Tagen einmal täglich 50 mg Wirkstoff peroral. Am 4. Tag werden die Tiere 2-mal behandelt. Am 5. Tag wird Serum gewonnen und die Lipoproteine werden mit einer Ultrazentrifuge aufgetrennt. Im Serum und in den isolierten Lipoproteinfraktionen werden das Cholesterin und die Triglyceride bestimmt. [K.R. Müller und R.G. Cortesi, Artery 4 (6): 564-577 (1978)].
Männliche Ratten von 180-200 g Körpergewicht erhalten an 3 Tagen einmal täglich peroral die Prüfsubstanz gelöst in Polyäthylenglykol 400. Am 4. Tag werden die Tiere zweimal, morgens und abends, behandelt. Nach der letzten Behandlung wird den Tieren das Futter entzogen. Sechzehn Stunden später werden die Ratten getötet. Aus dem Blut wird Serum gewonnen.
Gleiche Mengen Serum von je 2 Ratten aus derselben Gruppe werden vereinigt, und 0.05 EDTA (Aethylendiamintetraessigsäure) und 0,01 % Thimerosal werden zugesetzt. Die Serumlipoproteine werden durch Ultrazentrifugieren in einem Beckman 40.3 Rotor isoliert. Die VLDL (very low density lipoproteins) werden durch 24-stündiges
Zentrifugieren bei 78 000 g und der Dichte 1.006 gewonnen, die LDL (low density lipoproteins) durch 24-stündiges Zentrifugieren bei 78 000 g und der Dichte 1,040, und die HDL (high density lipoproteins) durch 24-stündiges Zentrifugieren bei 109 000 g und der Dichte 1.21.
In jeder Serumprobe und in jeder Lipoproteinfraktion werden Cholesterin und Triglyceride mit enzymatischen Methoden bestimmt. LDL-Cholesterin wurde als wichtigster Parameter für die Beurteilung der Lipidsenkung betrachtet.
Literatur: K.R. Müller und R.G. Cortesi, Artery 4(6):564-577 (1978).
Die Zahlen der folgenden Resultate geben die Aenderungen vom LDL-Cholesterin in % der Kontrolle an. Dosierung: 50 mg/kg peroral.

Row | Molecule | Aenderungen vom LDL-Cholesterin in % der Kontrolle [%]
1 | CCCOC1Oc2ccccc2-c2nc(-c3cccc(OC)c3)ncc21 (stereo not shown) [2-(3-Methoxy-phenyl)-5-propyloxy-5H-[1]benzopyrano[4,3-d]pyrimidin] | -43
2 | CCOC1Oc2ccccc2-c2nc(-c3ccc(O)cc3)ncc21 (stereo not shown) [2-(4-Hydroxy-phenyl)-5-äthyloxy-5H-[1]benzopyrano[4,3-d]pyrimidin] | -69
3 | CCCOC1Oc2ccccc2-c2nc(-c3ccc(OC)cc3)ncc21 (stereo not shown) [2-(4-Methoxy-phenyl)-5-propyloxy-5H-[1]benzopyrano[4,3-d]pyrimidin] | -38
4 | CCCCOC1Oc2ccccc2-c2nc(-c3cccc(C)c3)ncc21 (stereo not shown) [2-(5-Methyl-phenyl)-5-butyloxy-5H-[1]benzopyrano[4,3-d]pyrimidin] | -29
5 | CCOC1Oc2ccccc2-c2nc(-c3ccccc3)ncc21 (stereo not shown) [2-Phenyl-5-äthoxy-5H-[1]benzopyrano[4,3-d]pyrimidin] | -61

Tested on: Krümmungssyndrom an der Ratte
Test: Analgesic effect: acetic acid-induced writhing syndrome in the rat
Format: in vivo
Conditions: Rattus norvegicus, po; peroral, 1 h before i.p. 3 % acetic acid; dose (by interpolation) reducing number of writhings by 50 %, counted for 20 min; read-out: ED50
Description: Diese Wirkung wird durch Auswertung des Krümmungssyndroms an der Ratte bestimmt. Das Krümmungssyndrom wird z.B..in weiblichen Ratten von 120-140 g (5 Tiere pro Gruppe) durch eine intraperitoneale Injektion von 0,2 ml einer 3 %igen Essigsäurelösung eine Stunde nach der oralen Verabreichung der geprüften Substanz, hervorgerufen. Die Krümmungs-Bewegungen der Versuchstiere werden während 20 Minuten gezählt.
Die analgetische (antinociceptive) Wirksamkeit einer Verbindung wird durch die Bestimmung der Dosis (durch Interpolieren), welche bei Kontrolltieren (die lediglich den Trägerstoff der Wirksubstanz erhalten haben) die Anzahl der Krümmungen um 50% vermindert, beurteilt. ( ED50).
Literatur: Ziel et al., Pain Res. and Therapy, Vol. 1, ed. Bonica and Albe, Raven Press N.Y., 1976, p. 517.

Row | Molecule | ED50 [mg/kg]
6 | CCOC1Oc2ccccc2-c2nc(-c3ccccn3)ncc21 (stereo not shown) [1-(2-Pyridyl)-5-äthoxy-5H-[1]benzopyrano[4,3-d]pyrimidin] | 15
7 | CCCCOC1Oc2ccccc2-c2nc(-c3cccnc3)ncc21 (stereo not shown) [2-(3-Pyridyl)-5-butyloxy-5H-[1]benzopyrano[4,3-d]pyrimidin] | 5
8 | CCOC1Oc2ccccc2-c2nc(-c3cccnc3)ncc21 (stereo not shown) [2-(3-Pyridyl)-5-äthoxy-5H-[1]benzopyrano[4,3-d]pyrimidin] | 1.5
9 | CCCOC1Oc2ccccc2-c2nc(-c3ccncc3)ncc21 (stereo not shown) [2-(4-Pyridyl)-5-propyloxy-5H-[1]benzopyrano[4,3-d]pyrimidin] | 15

Same assay, conditions: peroral, 1 h before i.p. 3 % acetic acid; dose (by interpolation) reducing number of writhings by 50 %, counted for 20 min

Row | Molecule | ED50 [mg/kg]
10 | 6-Methyl-2-(3-pyridyl)-5-butyloxy-5H-[1]benzopyrano[4,3-d]pyrimidin | 60
